Data as given in patent publication US12594252B2, “Methods for treating inflammatory skin conditions” (JOURNEY MEDICAL CORPORATION, priority 2018, dated 2026).

Test system: subjects diagnosed with papulopustular rosacea
Assay: 16-week, multi-center, randomized, double-blind, parallel-group, controlled efficacy study
Type: in vivo, human
Details: minocycline about 40 mg, equivalent doses
Protocol: The pharmaceutical compositions as shown in Example 1 and 3 were studied in a 16-week, multi-center, randomized, double-blind, parallel-group, controlled study to evaluate efficacy. Subjects, who were at least 18 years old, diagnosed with papulopustular rosacea were randomized to 4 different treatment groups (50 subjects each in groups 1 to 4). Each subject was allocated to one of the treatment groups, receiving a single dose of Example 1 (Group 1) and Example 3 (Group 2): […]®-40 mg doxycycline capsules (Group 3); and placebo capsules (Group 4), orally for 16 weeks. Subjects' visits were scheduled at screening, baseline (day 1), and weeks 4, 8, 12 and 16. Clinical assessments of efficacy was conducted based on, proportion of subjects with IGA 'treatment success (reduction in IGA grade)' and reduction in total inflammatory lesion count (sum of papules, pustules, and nodules) from baseline (day 1) to weeks 4, 8, 12 and 16. The results are shown in following table 9 (IGA 'treatment success), table 10 (total inflammatory lesion change), table 11 (P values) and FIG. 6, FIG. 7, FIG. 8.

SMILES: CN(C)c1ccc(O)c2c1C[C@H]1C[C@H]3[C@H](N(C)C)C(O)=C(C(N)=O)C(=O)[C@@]3(O)C(O)=C1C2=O [minocycline, [4S-(4α,4aα,5aα,12aα)]-4,7-Bis(dimethylamino)-1,4,4a,5,5a,6,11,12a-octahydro-3,10,12,12a-tetrahydroxy-1,11-dioxo-2-naphthacenecarboxamide]
- % reduction in lesion counts, more as compared to doxycycline (40 mg): about 100%
